Data published in patent publication US7067537B2, “Substituted thiazole derivatives bearing 3-pyridyl groups, process for preparing the same and use thereof” (Takeda Pharmaceutical Company Limited, priority 2000, dated 2006).
Where a name gives a salt, the structure may show the parent alone.

Assays:
[1] = target: T1, Rat C17,20-lyase (Rattus norvegicus, UniProt P11715); experiment: Assay of steroid C17,20-lyase-inhibitory activity in rat (testis microsome, TLC of 3H-labelled products); assay type: biochemical; conditions: microsome from orchis of 13-week-old male SD rat; [1.2-3H]-17α-hydroxyprogesterone 10 nM, NADPH; pH 7.4; 37° C., 7 min; read-out: In vitro enzyme inhibitory activity (IC50) Rat C17,20-lyase
T1 construct: The orchis was homogenized and centrifuged to prepare a microsome; from tissue; host or cells: testis (orchis) microsomes of 13-week-old male SD rat
T1 sequence (P11715 1-507): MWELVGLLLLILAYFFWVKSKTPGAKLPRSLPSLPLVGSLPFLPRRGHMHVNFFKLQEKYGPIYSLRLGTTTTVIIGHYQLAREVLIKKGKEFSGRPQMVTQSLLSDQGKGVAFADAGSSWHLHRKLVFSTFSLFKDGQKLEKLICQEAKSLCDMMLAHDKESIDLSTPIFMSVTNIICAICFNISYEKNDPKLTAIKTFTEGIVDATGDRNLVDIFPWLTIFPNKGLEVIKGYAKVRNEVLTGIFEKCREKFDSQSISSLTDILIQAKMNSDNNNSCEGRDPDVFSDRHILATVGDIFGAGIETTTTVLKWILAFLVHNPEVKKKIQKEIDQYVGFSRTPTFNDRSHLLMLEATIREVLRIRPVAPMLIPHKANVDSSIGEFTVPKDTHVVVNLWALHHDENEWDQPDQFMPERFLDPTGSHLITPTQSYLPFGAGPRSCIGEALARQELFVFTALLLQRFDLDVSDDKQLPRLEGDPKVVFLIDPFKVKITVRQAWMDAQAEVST
Procedure: Assay of Steroid C17,20-lyase-inhibitory Activity in Rat
The assay was performed according to The Prostate, Vol. 26, 140–150 (1995). The orchis was removed from 13-week-old male SD rat. The orchis was homogenized and centrifuged to prepare a microsome. The [1.2-^3H]-17α-hydroxyprogesterone having a final concentration of 10 nM, NADPH solution and the test compound were was dissolved in a 100 mM phosphate buffer solution (10 μl, pH 7.4). Microsome protein (7 μg/10 μl) was added and the mixture was incubated at 37° C. for 7 min. Ethyl acetate (40 μl) was added and the mixture was centrifuged, and the substrate and the product (androstenedione and testosterone) in the supernatant were separated by silica gel thin layer chromatography (TLC). The spot was detected and quantitatively assayed by a BAS 2000 bioimage analyzer. Taking the production amount when the test compound was not added (control) as 100%, the concentration (IC50) of the compound necessary for 50% inhibition of the product amount relative to the control was calculated.

Question: With `CC(=O)Nc1cccc(-c2csc(-c3cnccc3C(F)(F)F)n2)c1.Cl` as the compound, how does the melting point read?
Answer: The melting point was 154 to 155 °C.

Question: For `CS(=O)(=O)Nc1ccc(-c2csc(-c3cnccc3C(F)(F)F)n2)cc1.Cl`, which melting point is on record?
Answer: The melting point was 205 to 207 °C.

Question: With `COc1cccc(-c2csc(-c3cccnc3)n2)c1` (as salt: HBr) [Compound 49] as the compound, how does the melting point read?
Answer: The melting point was 231 to 233 °C.

Question: With `Fc1ccc(-c2nc(-c3cccnc3)cs2)cc1` (as salt: HBr) [Compound 136] as the compound, how does the melting point read?
Answer: Its melting point is 225 to 227 °C.

Question: For `COc1ccc(-c2csc(-c3cnccc3C(F)(F)F)n2)cc1` (as salt: HCl) [Compound 64], which melting point is on record?
Answer: Its melting point is 93 to 95 °C.

Question: With `COc1ccncc1-c1nc(-c2ccc(C)cc2C)cs1` (as salt: HCl) [Compound 85] as the compound, how does the melting point read?
Answer: The melting point was 154 °C.

Question: Which melting point does the source give for `Cc1ccncc1-c1csc(-c2ccc(F)cc2)n1` (as salt: HCl) [Compound 137, 3-[2-(4-fluorophenyl)-1,3-thiazol-4-yl]-4-methylpyridine] here?
Answer: The melting point was 180 to 183 °C.

Question: With `CS(=O)(=O)Nc1cccc(-c2csc(-c3cnccc3C(F)(F)F)n2)c1` (as salt: hydrochloride) [Compound 161, N-(3-{2-[4-(trifluoromethyl)pyridin-3-yl]-1,3-thiazol-4-yl}phenyl)methanesulfonamide] as the compound, how does the melting point read?
Answer: Its melting point is 162 to 165 °C.

Question: For `COc1cccc(-c2csc(-c3cccnc3)n2)c1` [Compound 49], which IC50 [1] is on record?
Answer: Its IC50 is 33 nM.

Question: For `FC(F)(F)c1ccncc1-c1nc(-c2ccc(Br)cc2)cs1` [Compound 53], which IC50 [1] is on record?
Answer: The IC50 was < 10 nM.

Question: And the melting point?
Answer: The melting point was 69 to 71 °C.

Question: Which IC50 [1] does the source give for `COc1ccc(-c2csc(-c3cnccc3C(F)(F)F)n2)cc1` [Compound 64] here?
Answer: Its IC50 is < 10 nM.

Question: For `Cc1ccncc1-c1nc(-c2ccc(Cl)cc2)cs1` [Compound 74, 3-[4-(4-chlorophenyl)-1,3-thiazol-2-yl]-4-methylpyridine], which melting point is on record?
Answer: The melting point was 119 °C.

Question: For `Cc1ccncc1-c1nc(-c2ccc(F)cc2)cs1` [Compound 78, 3-[4-(4-fluorophenyl)-1,3-thiazol-2-yl]-4-methylpyridine], which IC50 [1] is on record?
Answer: The IC50 was < 10 nM.

Question: And the melting point?
Answer: Its melting point is 129 °C.

Question: For `COc1ccncc1-c1nc(-c2ccc(C)cc2C)cs1` [Compound 85], which IC50 [1] is on record?
Answer: Its IC50 is 30 nM.

Question: With `Cc1ccc(-c2csc(-c3cnccc3C)n2)cc1` [Compound 103] as the compound, how does the IC50 [1] read?
Answer: Its IC50 is < 10 nM.

Question: What about the melting point of the same compound?
Answer: The melting point was 98 °C.

Question: With `Cc1ccncc1-c1csc(-c2ccc(S(N)(=O)=O)cc2)n1` [Compound 135, 4-[4-(4-methyl-pyridin-3-yl)-1,3-thiazol-2-yl]benzenesulfonamide] as the compound, how does the melting point read?
Answer: Its melting point is 192 to 195 °C.

Question: For `Fc1ccc(-c2nc(-c3cccnc3)cs2)cc1` [Compound 136], which IC50 [1] is on record?
Answer: Its IC50 is 14 nM.

Question: For `NC(=O)CNc1ccncc1-c1nc(-c2ccc(Cl)cc2)cs1` [Compound 144], which melting point is on record?
Answer: Its melting point is 202 °C.

Question: With `CC(C)(O)c1ccncc1-c1nc(-c2ccc(Cl)cc2)cs1` [Compound 145, 2-{3-[4-(4-chlorophenyl)-1,3-thiazol-2-yl]pyridin-4-yl}propan-2-ol] as the compound, how does the melting point read?
Answer: The melting point was 146 °C.

Question: Which melting point does the source give for `CN(C)C(=O)c1ccncc1-c1nc(-c2ccc(Cl)cc2)cs1` [Compound 146, 3-[4-(4-chlorophenyl)-1,3-thiazol-2-yl]-N,N-dimethylisonicotinamide] here?
Answer: Its melting point is 195 °C.

Question: With `NC(=O)c1ccncc1-c1nc(-c2ccc(Cl)cc2)cs1` [Compound 147] as the compound, how does the melting point read?
Answer: Its melting point is 201 °C.

Question: With `CNC(=O)c1ccncc1-c1nc(-c2ccc(Cl)cc2)cs1` [Compound 148] as the compound, how does the melting point read?
Answer: The melting point was 205 °C.

Question: With `Cc1ccncc1-c1nc(-c2ccc(Cl)cc2)c(Cl)s1` [Compound 150, 3-[5-chloro-4-(4-chlorophenyl)-1,3-thiazol-2-yl]-4-methylpyridine] as the compound, how does the melting point read?
Answer: The melting point was 146 °C.

Question: With `Cc1ccc(-c2nc(-c3cnccc3C)sc2F)cc1` [Compound 153, 3-[5-fluoro-4-(4-methylphenyl)-1,3-thiazol-2-yl]-4-methylpyridine] as the compound, how does the melting point read?
Answer: Its melting point is 96 °C.

Question: Which melting point does the source give for `Cc1ccncc1-c1nc(-c2ccc(S(N)(=O)=O)cc2)cs1` [Compound 154, 4-[2-(4-methylpyridin-3-yl)-1,3-thiazol-4-yl]benzenesulfonamide] here?
Answer: Its melting point is 219 °C.

Question: Which melting point does the source give for `NS(=O)(=O)c1ccc(-c2csc(-c3cnccc3C(F)(F)F)n2)cc1` [Compound 155, 4-{2-[4-(trifluoromethyl)pyridin-3-yl]-1,3-thiazol-4-yl}benzenesulfonamide] here?
Answer: Its melting point is 217 °C.

Question: With `Nc1ccc(-c2csc(-c3cnccc3C(F)(F)F)n2)cc1` [Compound 156, 4-{2-[4-(trifluoromethyl)pyridin-3-yl]-1,3-thiazol-4-yl}aniline] as the compound, how does the melting point read?
Answer: The melting point was 71 to 72 °C.

Question: Which melting point does the source give for `Cc1ccncc1-c1nc(-c2ccc(C(=O)O)cc2)cs1` [Compound 163, 4-[2-(4-methylpyridin-3-yl)-1,3-thiazol-4-yl]benzoic acid] here?
Answer: Its melting point is > 300 °C.

Question: With `NC(=O)c1ccc(-c2csc(-c3cnccc3C(F)(F)F)n2)cc1` [Compound 164, 4-{2-[4-(trifluoromethyl)pyridin-3-yl]-1,3-thiazol-4-yl}benzamide] as the compound, how does the melting point read?
Answer: Its melting point is 192 to 193 °C.

Question: Which melting point does the source give for `Cc1ccncc1-c1nc(-c2ccc(C(N)=O)cc2)cs1` [Compound 165, 4-[2-(4-methylpyridin-3-yl)-1,3-thiazol-4-yl]benzamide] here?
Answer: Its melting point is 222 to 225 °C.

Question: Which melting point does the source give for `Cc1ccncc1-c1csc(-c2cccc(C(=O)N(C)C)c2)n1` [Example 27, N,N-dimethyl-3-[4-(4-methylpyridin-3-yl)-1,3-thiazol-2-yl]benzamide] here?
Answer: Its melting point is 106 to 108 °C.

Question: For `Cc1ccncc1-c1csc(-c2ccc(C(N)=O)cc2)n1` [Example 28, 4-[4-(4-methylpyridin-3-yl)-1,3-thiazol-2-yl]benzamide], which melting point is on record?
Answer: Its melting point is 155 to 157 °C.

Question: For `CNC(=O)c1ccc(-c2nc(-c3cnccc3C)cs2)cc1` [Example 29, N-methyl-4-[4-(4-methylpyridin-3-yl)-1,3-thiazol-2-yl]benzamide], which melting point is on record?
Answer: The melting point was 115 °C.

Question: Which melting point does the source give for `CNC(=O)c1ccc(C)c(-c2nc(-c3cnccc3C)cs2)c1` [Example 30, N, 4-dimethyl-3-[4-(4-methylpyridin-3-yl)-1,3-thiazol-2-yl]benzamide] here?
Answer: Its melting point is 140 to 143 °C.

Question: With `Cc1ccncc1-c1csc(-c2cc(C(=O)N(C)C)ccc2C)n1` [Example 31, N,N,4-trimethyl-3-[4-(4-methylpyridin-3-yl)-1,3-thiazol-2-yl]benzamide] as the compound, how does the melting point read?
Answer: The melting point was 180 to 182 °C.

Question: For `Cc1ccncc1-c1csc(-c2cc(C(=O)N3CCCC3)ccc2C)n1` [Example 32, 4-methyl-3-{2-[2-methyl-5-(pyrrolidine-1-ylcarbonyl)phenyl]-1,3-thiazol-4-yl}pyridine], which melting point is on record?
Answer: The melting point was 149 to 150 °C.

Question: Which melting point does the source give for `CNC(=O)c1ccc(F)c(-c2nc(-c3cnccc3C)cs2)c1` [Example 33, 4-fluoro-N-methyl-3-[4-(4-methylpyridin-3-yl)-1,3-thiazol-2-yl]benzamide] here?
Answer: The melting point was 195 to 196 °C.

Question: With `CNC(=O)c1cc(-c2nc(-c3cnccc3C)cs2)ccc1Cl` [Example 34, 2-chloro-N-methyl-5-[4-(4-methylpyridin-3-yl)-1,3-thiazol-2-yl]benzamide] as the compound, how does the melting point read?
Answer: The melting point was 127 to 129 °C.

Question: For `CC(=O)Nc1ccc(-c2nc(-c3cnccc3C)cs2)cc1` [Example 36, N-{4-[4-(4-methylpyridin-3-yl)-1,3-thiazol-2-yl]phenyl}acetamide], which melting point is on record?
Answer: The melting point was 205 to 207 °C.

Question: Which melting point does the source give for `Cc1ccncc1-c1csc(-c2cc(NC=O)ccc2C)n1` [Example 37, 4-methyl-3-[4-(4-methylpyridin-3-yl)-1,3-thiazol-2-yl]phenylformamide] here?
Answer: Its melting point is 127 to 129 °C.

Question: Which melting point does the source give for `CC(=O)Nc1ccc(C)c(-c2nc(-c3cnccc3C)cs2)c1` [Example 38, N-{4-methyl-3-[4-(4-methylpyridin-3-yl)-1,3-thiazol-2-yl]phenyl}acetamide] here?
Answer: The melting point was 151 to 152 °C.
